Values of other authors as cited in patent US11896675B2, “Site-specific antibody conjugation and antibody-drug conjugate as specific embodiment thereof” (AbTis Co., Ltd., priority 2019, dated 2024).
Square brackets hold non-standard residues; d marks the D form. Ends that are not written are not given here. Cit = NC(=O)NCCC[C@H](N)C(=O)O

Tests used:
IgG [1] = conditions: towards IgG, obtained at different conditions or by different methods; for Kd: read-out: Binding Constant Kd
IgG [2] = conditions: towards IgG

In the case of cyclo[(Link-M-WFRHYK], the Kd (IgG [1]) is listed as 7.6 µM and the “Binding Capacity (maximal binding capacity qm)” value (IgG [2]) is listed as 19.7 mg/mL.
For NARKFYKG [spot peptide array peptide], the “Binding Constant Ka” value (IgG [1]) is listed as “Ka = 6.5 × 10^6M^−1” and the “Binding Capacity, DBC (dynamic binding capacity)” value (IgG [2]) is listed as “DBC-5.0”.
For “KHRFNKD [phage-display library peptide, SpA mimic]”, the Kd (IgG [1]) is given as 0.02 µM.
For DAAG [comb. library ligand, SpA mimic], the “Binding Constant Ka” value (IgG [1]) is given as “Ka = 2.6 × 10^5M^−1” and the “Binding Capacity (maximal binding capacity qm)” value (IgG [2]) is given as 49.6 mg/mL.
In the case of NKFRGKYK [spot peptide array peptide], the “Binding Constant Ka” value (IgG [1]) is given as “Ka = 8.6 × 10^6M^−1” and the “Binding Capacity, DBC (dynamic binding capacity)” value (IgG [2]) is given as “DBC-4.9”.
In the case of “HWCitGWV (HW[Cit]GWV) [comb. library peptide, SpA mimic]”, the Kd (IgG [1]) is given as 108 µM and the “Binding Capacity (maximal binding capacity qm)” value (IgG [2]) is given as 78 mg/mL.
For “APAR [comb. tetrapeptide library peptide]”, the Kd (IgG [1]) is listed as 0.094 µM and the “Binding Capacity (maximal binding capacity qm)” value (IgG [2]) is listed as 9.1 mg/mL.
In the case of “HWRGWV [comb. library peptide, SpA mimic]”, the Kd (IgG [1]) is listed as 10 µM and the “Binding Capacity (maximal binding capacity qm)” value (IgG [2]) is listed as 26.4 mg/mL.
For “D2AAG (DDAAG) [Compound D2AAG, comb. library ligand, SpA mimic]”, the “Binding Constant Ka” value (IgG [1]) is given as “Ka = 7.9 × 10^5M^−1” and the “Binding Capacity (maximal binding capacity qm)” value (IgG [2]) is given as 36.2 mg/mL.
In the case of “FRRHL [comb. library peptide, SpA mimic]”, the Kd (IgG [1]) is listed as 26 µM and the “Binding Capacity (maximal binding capacity qm)” value (IgG [2]) is listed as 33.6 mg/mL.
For “EPIHRSTLTALL [phage display library peptide, SpA mimic]”, the “Binding Capacity” value (IgG [2]) is given as 320 µg/g.
For FYCHTIDE [FYCHTIDE(3)], the Kd (IgG [1]) is given as 5.7 µM and the “Binding Capacity (maximal binding capacity qm)” value (IgG [2]) is given as 63.7 mg/mL.
In the case of “HYFKFD [comb. library peptide, SpA mimic]”, the Kd (IgG [1]) is given as 11 µM and the “Binding Capacity (maximal binding capacity qm)” value (IgG [2]) is given as 27.0 mg/mL.
In the case of RRGW, the Kd (IgG [1]) is given as 0.0005 µM.
For FYWHCLDE, the Kd (IgG [1]) is given as 1.5 µM and the “Binding Capacity (maximal binding capacity qm)” value (IgG [2]) is given as 104.2 mg/mL.
For FYCHWALE, the Kd (IgG [1]) is given as 6.1 µM and the “Binding Capacity (maximal binding capacity qm)” value (IgG [2]) is given as 87.6 mg/mL.
